Paper PMC8286840, “Identifying SARS-CoV-2 antiviral compounds by screening for small molecule inhibitors of Nsp3 papain-like protease” (Biochemical Journal, 2021)
Structures can show the parent of a compound that is named as a salt. Where two headings read alike, the source gives them in different places. Where a SMILES comes first, the peptide text is derived from it. [ ]: non-standard residue; d: D form. The star is where a group is joined. Hexanoyl = CCCCCC(=O)*; Ahx = NCCCCCC(=O)O

What was measured:
[1] = molecular target: T1, SARS-CoV-2 PLpro (nsp3 1564–1878) (Severe acute respiratory syndrome coronavirus 2, UniProt P0DTD1); assay: biochemical; parameters: FRET-quenched peptide (Pro3) cleavage by PLpro, 10 min pre-incubation, slope over 20 min, normalised to no-compound control; settings: high concentration screen, read-out: % of control remaining
[2] = molecular target: T1, SARS-CoV-2 PLpro (nsp3 1564–1878); assay: biochemical; parameters: FRET-quenched peptide (Pro3) cleavage by PLpro, 10 min pre-incubation, slope over 20 min, normalised to no-compound control; settings: low concentration screen, read-out: % of control remaining

CNS(=O)(=O)Cc1ccc2[nH]cc(CCN(C)C)c2c1 [Sumatriptan (succinate)]
remaining activity at 3.75 µM ([1]; Well no.=6379): 91%
remaining activity at 1.25 µM ([2]; Well no.=6379): 104%

CN(C)C(=O)Oc1cccc([N+](C)(C)C)c1 [Neostigmine]
remaining activity at 3.75 µM ([1]; Well no.=1558): 103%
remaining activity at 1.25 µM ([2]; Well no.=1558): 106%

O=C(O)C[C@H](O)C(=O)O [(S)-2-Hydroxysuccinic acid]
remaining activity at 3.75 µM ([1]; Well no.=6825): 100%
remaining activity at 1.25 µM ([2]; Well no.=6825): 105%

CC1(COc2ccc(CC3SC(=O)NC3=O)cc2)CCCCC1 (centres unmarked) [Ciglitazone]
remaining activity at 3.75 µM ([1]; Well no.=4236): 107%
remaining activity at 1.25 µM ([2]; Well no.=4236): 110%

CC(=O)Oc1ccccc1C(=O)Oc1ccc(CO[N+](=O)[O-])cc1 [NCX 4040]
remaining activity at 3.75 µM ([1]; Well no.=6087): 99.2%
remaining activity at 1.25 µM ([2]; Well no.=6087): 99.1%

CC(=O)Nc1ccc(C(=O)Nc2ccccc2N)cc1 [CI994 (Tacedinaline)]
remaining activity at 3.75 µM ([1]; Well no.=5165): 101%
remaining activity at 1.25 µM ([2]; Well no.=5165): 103%

CC[C@H](CC[C@@H](C)[C@H]1CC[C@H]2[C@@H]3CC=C4C[C@@H](O)CC[C@]4(C)[C@H]3CC[C@]12C)C(C)C
remaining activity at 3.75 µM ([1]; Well no.=3416): 96.8%
remaining activity at 1.25 µM ([2]; Well no.=3416): 93.1%

NC1CCN(c2nc3c(cc2F)c(=O)c(C(=O)O)cn3-c2ccc(F)cc2F)C1 (centres unmarked) [Tosufloxacin]
remaining activity at 3.75 µM ([1]; Well no.=1962): 93.3%
remaining activity at 1.25 µM ([2]; Well no.=1962): 98.1%

COc1ccc(C[C@@H](C)NC[C@H](O)c2ccc(O)c(NC=O)c2)cc1 [Formoterol hemifumarate]
remaining activity at 3.75 µM ([1]; Well no.=5014): 104%
remaining activity at 1.25 µM ([2]; Well no.=5014): 109%

Cc1ccc(-c2ccc3c(c2)C=C(C(=O)Nc2ccc(C[N+](C)(C)C4CCOCC4)cc2)CCC3)cc1 [TAK-779]
remaining activity at 3.75 µM ([1]; Well no.=8357): 101%
remaining activity at 1.25 µM ([2]; Well no.=8357): 102%

OC(CN1CCN(c2cccc(Cl)c2)CC1)C(c1ccccc1)c1ccccc1 (centres unmarked) [BRL-15572]
remaining activity at 3.75 µM ([1]; Well no.=5336): 94.2%
remaining activity at 1.25 µM ([2]; Well no.=5336): 94.9%

CCC(COC(=O)c1cc(OC)c(OC)c(OC)c1)(c1ccccc1)N(C)C (centres unmarked) [Trimebutine]
remaining activity at 3.75 µM ([1]; Well no.=4762): 105%
remaining activity at 1.25 µM ([2]; Well no.=4762): 103%

CCn1cc(C(=O)O)c(=O)c2cc(F)c(N3CCNC(C)C3)c(F)c21 (centres unmarked) [Lomefloxacin]
remaining activity at 3.75 µM ([1]; Well no.=2272): 96.1%
remaining activity at 1.25 µM ([2]; Well no.=2272): 95.3%

Cc1ccc2c(c1CCC(=O)O)CC[C@@H](NS(=O)(=O)c1ccc(Cl)cc1)C2 [Terutroban]
remaining activity at 3.75 µM ([1]; Well no.=7149): 94.2%
remaining activity at 1.25 µM ([2]; Well no.=7149): 93.3%

O=C1Nc2ccccc2/C1=C\c1c(Cl)[nH]c2ccccc12 [Cdk1 Inhibitor]
remaining activity at 3.75 µM ([1]; Well no.=2364): 104%
remaining activity at 1.25 µM ([2]; Well no.=2364): 101%

CCCCCCCC/C=C/CCCCCCCCC(=O)O [10(E)-Nonadecenoic acid]
remaining activity at 3.75 µM ([1]; Well no.=4546): 102%
remaining activity at 1.25 µM ([2]; Well no.=4546): 98.5%

O=C(O[C@H]1C[C@H]2CC[C@@H](C1)[N+]21CCCC1)C(O)(c1ccccc1)c1ccccc1 [Trospium chloride (Sanctura)]
remaining activity at 3.75 µM ([1]; Well no.=4916): 90.4%
remaining activity at 1.25 µM ([2]; Well no.=4916): 97.3%

CCN(CC)Cc1ccc2cc(COC(=O)Nc3ccc(C(=O)NO)cc3)ccc2c1 [ITF2357 (Givinostat)]
remaining activity at 3.75 µM ([1]; Well no.=5110): 106%
remaining activity at 1.25 µM ([2]; Well no.=5110): 102%

Nc1ncnc2nc[nH]c12 [Adenine sulfate]
remaining activity at 3.75 µM ([1]; Well no.=5006): 85.9%
remaining activity at 1.25 µM ([2]; Well no.=5006): 97.9%

O=C(Nc1cccc(-c2ccccc2)c1)OC1CCCCC1 [URB602]
remaining activity at 3.75 µM ([1]; Well no.=5392): 105%
remaining activity at 1.25 µM ([2]; Well no.=5392): 99.5%

CCC(C)N(C)C(=O)c1cc2ccccc2c(-c2ccccc2Cl)n1 (centres unmarked) [PK 11195]
remaining activity at 3.75 µM ([1]; Well no.=185): 98.2%
remaining activity at 1.25 µM ([2]; Well no.=185): 99.9%

N[C@@H](Cn1oc(=O)[nH]c1=O)C(=O)O [Quisqualic acid]
remaining activity at 3.75 µM ([1]; Well no.=3535): 101%
remaining activity at 1.25 µM ([2]; Well no.=3535): 101%

CN(C)C(=O)c1ccc(S(=O)(=O)c2ccc(NC(=O)[C@@](C)(O)C(F)(F)F)c(Cl)c2)cc1 [AZD7545]
remaining activity at 3.75 µM ([1]; Well no.=8528): 98.2%
remaining activity at 1.25 µM ([2]; Well no.=8528): 101%

Cc1ccc(C(=O)C(C)CN2CCCCC2)cc1 (centres unmarked) [Tolperisone (hydrochloride)]
remaining activity at 3.75 µM ([1]; Well no.=7498): 100%
remaining activity at 1.25 µM ([2]; Well no.=7498): 99%

CCCCCCCCCCCCCCCCCCCCC(=O)O [Heneicosanoic acid]
remaining activity at 3.75 µM ([1]; Well no.=4450): 101%
remaining activity at 1.25 µM ([2]; Well no.=4450): 101%

N[C@@H](Cc1ccccc1)C(=O)N1C/C(=C/c2ccc(Cl)c(Cl)c2)C(=O)/C(=C\c2ccc(Cl)c(Cl)c2)C1 [RA190]
remaining activity at 3.75 µM ([1]; Well no.=8408): 89.8%
remaining activity at 1.25 µM ([2]; Well no.=8408): 89.3%

CNCC(O)c1ccc(O)cc1 (centres unmarked) [p-Synephrine]
remaining activity at 3.75 µM ([1]; Well no.=7313): 102%
remaining activity at 1.25 µM ([2]; Well no.=7313): 98.5%

O=C(NC1CCN(CCCCC2(C(=O)NCC(F)(F)F)c3ccccc3-c3ccccc32)CC1)c1ccccc1-c1ccc(C(F)(F)F)cc1 [Lomitapide]
remaining activity at 3.75 µM ([1]; Well no.=8672): 93.5%
remaining activity at 1.25 µM ([2]; Well no.=8672): 93.8%

CC(=O)c1ccc(N2CCOCC2)cc1O [DNA-PK Inhibitor III]
remaining activity at 3.75 µM ([1]; Well no.=2365): 105%
remaining activity at 1.25 µM ([2]; Well no.=2365): 104%

CC(C)c1ccc2c(c1)c(SC(C)(C)C)c(CC(C)(C)C(=O)O)n2Cc1ccc(Cl)cc1 [MK-886 (L-663,536)]
remaining activity at 3.75 µM ([1]; Well no.=8678): 94.2%
remaining activity at 1.25 µM ([2]; Well no.=8678): 96.7%

N[C@H](CO)C(=O)O [D-Serine]
remaining activity at 3.75 µM ([1]; Well no.=1362): 93.5%
remaining activity at 1.25 µM ([2]; Well no.=1362): 92.8%

CCCN(CCC)CCc1cccc2c1CC(=O)N2 [Ropinirole (hydrochloride)]
remaining activity at 3.75 µM ([1]; Well no.=8205): 90.6%
remaining activity at 1.25 µM ([2]; Well no.=8205): 99.3%

NC(=O)[C@@H]1CCCC[C@@H]1C(=O)Nc1ccc(Cl)c(Cl)c1 [Lu AF21934]
remaining activity at 3.75 µM ([1]; Well no.=8529): 104%
remaining activity at 1.25 µM ([2]; Well no.=8529): 104%

O=C(O)c1ccc(O)c(O)c1 [Protocatechuic acid]
remaining activity at 3.75 µM ([1]; Well no.=4047): 101%
remaining activity at 1.25 µM ([2]; Well no.=4047): 99.6%

CCCCCC(=O)N[C@@H](Cc1ccc(O)cc1)C(=O)N[C@H](C(=O)NCCCCCC(N)=O)[C@@H](C)CC [Dihexa] (Hexanoyl-Tyr-Ile-[Ahx]-NH2)
remaining activity at 3.75 µM ([1]; Well no.=8646): 98.4%
remaining activity at 1.25 µM ([2]; Well no.=8646): 98.6%

CN(C)C(=O)C(CCN1CCC(O)(c2ccc(Cl)cc2)CC1)(c1ccccc1)c1ccccc1 [Loperamide.HCl]
remaining activity at 3.75 µM ([1]; Well no.=1597): 104%
remaining activity at 1.25 µM ([2]; Well no.=1597): 104%

Cn1c(=O)c(-c2c(Cl)cccc2Cl)cc2cnc(Nc3cccc(C(=O)O)c3)nc21 [PD173955-Analog1]
remaining activity at 3.75 µM ([1]; Well no.=2849): 99.7%
remaining activity at 1.25 µM ([2]; Well no.=2849): 101%
